Measurements from patent US20120149101A1, “METHODS AND KITS FOR REGULATING INTRACELLULAR TRAFFICKING OF A TARGET PROTEIN” (INSTITUT CURIE, priority 2009, published 2012).

Columns and labels:
[1] = target: T1, interaction between SBP-Tag and Streptavidin (Streptomyces avidinii, UniProt P22629, L133T/T100R/V149R/V79T); test: RUSH^L[ID]: release of SBP-tagged reporters from the hook Ii-Core streptavidin, by immunofluorescence and time-lapse imaging; type: cell-based, human
T1 construct: expressed in transfected cells; host or cells: HeLa cells, transient transfection of the hook-IRES-reporter plasmid
T1 sequence (P22629 25-183 V79T/T100R/L133T/V149R limits assumed): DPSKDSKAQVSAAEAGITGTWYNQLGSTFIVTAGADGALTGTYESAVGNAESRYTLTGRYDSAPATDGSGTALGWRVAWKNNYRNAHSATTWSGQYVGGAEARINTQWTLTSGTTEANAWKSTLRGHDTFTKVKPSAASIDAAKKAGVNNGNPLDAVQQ
Procedure: The Reporter ST-SBP-GFP is retained in the ER in cells expressing the hook Ii-Core streptavidin. Biotin is added at time 00:00 (min sec) and the release of the reporter is followed by time-lapse fluorescent imaging using a spinning disk equipped confocal microscope at 37° C. The Reporter starts to be visible in the Golgi apparatus in a very short time (9:30) and labels massively the Golgi apparatus by 30 minutes.
The Reporter SBP-GFP-Ecadherin is retained in the ER in cells expressing the hook Ii-Core streptavidin. Biotin is added at time 00:00 (min:sec) and the release of the reporter is followed by time-lapse fluorescent imaging using a spinning disk equipped confocal microscope at 37° C. The Reporter is visualized using GFP as a detection domain. Significant quantities of the reporter are visible in the Golgi apparatus from 03:30 and continue to increase. The reporter starts to be visible at the plasma membrane around 30:00. Note that transport intermediates (in the form of punctuate staining) are visible at early (ER to Golgi) and late (Golgi to plasma membrane) time points.
(§1) Hela cells were grown at 37° C. in DMEM (Invitrogen) supplemented with L-glutamine, Sodium Pyruvate and 10% Fetal Calf Serum. For transient transfection, cells were plated on coverslips in 150-mm culture dishes and transfected with 25 μg of the plasmid hook-IRES-reporter using the calcium phosphate precipitation method, in presence of 25 mM HEPES. After 4 hours, cells were washed out with fresh medium and incubated overnight in presence of 3.1 nM Rapamycin (Sigma). Then cells were washed out 3 times with medium, and incubated in prewarmed medium with 3.3 μM FK506 (Cayman) and […] cycloheximide (CHX) for several time points. For each time point, 1 mL of medium containing FK506 and CHX was added into a well of a 12-well plate. Then cells were fixed with 4% PAF and processed for fluorescent microscopy. In the streptavidin/SBP set-up, transfection is done similarly but no addition is done when washing the cells after transfection. After 1-hours, biotin (10 μM) is added to induce reporter release. Then cells are then processed as in the MD set-up.
Cells were fixed in paraformaldehyde 3% for 15 min, washed in PBS (Phosphate Buffer Saline) and free aldehydes were quenched in NH4Cl 50 mM for 5 min. Cells were then permeabilized in PBS containing Bovine Serum Albumine (BSA 0.5%) and Saponine (Sapo 0.05%) [PBS/BSA/Sapo] for 20 min and incubated with primary antibodies (human anti-Giantin, Nizak et al. 2003, Moutel et al., 2009) in the same buffer for 30 min Cells were washed in PBS and incubated in PBS/BSA/Sapo with fluorescently labelled secondary antibodies (Jackson Immunoresearch) for 20 min Nuclei were counter-stained with DAPI (4′,6-Diamidino-2-phenylindole, Sigma-Aldrich). Cells were finally washed in PBS before being mounted in Mowiol (Sigma-Aldrich) and observed by fluorescent microscopy.
A hook was constructed using the ER localized Ii33 fused to monomeric Streptavidin (SEQ ID NO:3) (FRAP of the construct from Example 1 is replaced by monomeric Streptavidin). The reporter was the Golgi localization domain of Sialyl Transferase as used in Example 1. The Hook and reporter were co-expressed in cells and the two domains, streptavidin and SBP-tag interact by default, preventing ST transport to the Golgi apparatus. Release of ST was achieved using moderate concentration of free biotin (around 1-10 μM).

[2] = target: T2, interaction between SBP and core streptavidin (Streptomyces avidinii, UniProt P22629); test: RUSH^C[ID]: release of the reporter TMD22 from the hook TMD17-streptavidin; type: cell-based, human; conditions: upon biotin addition; cytoplasmic topology
T2 construct: the FRAP domain is replaced by Core streptavidin which was amplified by PCR; expressed in transfected cells; host or cells: HeLa cells, transient transfection of the hook-IRES-reporter plasmid
T2 sequence (P22629 with tags, fused parts or gaps): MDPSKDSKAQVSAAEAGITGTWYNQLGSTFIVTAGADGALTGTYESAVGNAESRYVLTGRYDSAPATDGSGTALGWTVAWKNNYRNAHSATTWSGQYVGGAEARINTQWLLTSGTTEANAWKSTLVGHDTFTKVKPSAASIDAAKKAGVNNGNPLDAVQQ
Procedure: as §1
Cells were fixed in paraformaldehyde 3% for 15 min, washed in PBS (Phosphate Buffer Saline) and free aldehydes were quenched in NH4Cl 50 mM for 5 min. […]

[3] = upon biotin addition, surface anti-GFP

O=C(O)CCCC[C@@H]1SC[C@@H]2NC(=O)N[C@@H]21 [Biotin, D-Biotin]
time by which reporter labels massively the Golgi apparatus ([1]; reporter ST-SBP-GFP, biotin added at 00:00, 37° C.): ≤ 30 min | concentration of free biotin achieving release of ST ([1]; reporter ST, hook Ii33-Streptavidin): 1 to 10 µM | release of reporters ST-SBP-GFP and ManII-SBP-mCherry to the Golgi apparatus ([1]; upon addition of biotin): they both reach the Golgi apparatus | release of reporter SBP-GFP-Ecadherin to the plasma membrane [1, 3]: the reporter is released and reaches its target plasma membrane compartment | release of reporter SBP-GFP-VSV-G to the plasma membrane [1, 3]: the reporter is released and reaches its target plasma membrane compartment | release of reporter TMD22 toward the plasma membrane [2]: release was observed
